In patent publication US20170304286A1 (LAUNX BIOMEDICAL CO., LTD., priority 2014, published 2017):
Where “and” joins values, the source holds several entries; their conditions need not be identical. Equal entries are not always repeated. Where two headings read alike, the source gives them in different places.

Legend:
[1] = system: 786-O (Renal adenocarcinoma); test: WST-1 cell viability, renal cancer cell line 786-O; type: cell-based; settings: Homo sapiens
Description: (§1) The cell numbers were counted and reseed as 2×10^6 in culture plate/flask. Then, the culture medium were added to a volume of 10 ml, and the cells were cultured for 2-3 days. Then, the cells were suspended for loading into 96-well plates. The number of cells was 3000 and the volume of the culture medium was 100 μl each well.
(§2) Removing the original culture medium from 96-well plate. Then add 100 μl of commercially drug at a concentration of 10 μM per well. After 72 hours, add the diluted WST-1 reagent to the well with 100 μl/well, and the diluted WST-1 reagent was acquired from the dilution of 9:1 medium and WST-1 stock reagent. Finally, the total volume of each well was 200 μl/well. Culture the 96-well plate at 37° C. for 30 to 90 minutes. Detecting and calculate the survival rate of each cancer cells with an ELISA reader at OD450 nm.

[2] = system: HepG2 (hepatocellular carcinoma); test: WST-1 cell viability, hepatic cancer cell line HepG2; type: cell-based; settings: Homo sapiens
Description: as §1, §2

ovarian cancer cells = test: Summary of cell viability, ovarian cancer; type: cell-based; settings: 72 h, read-out: Inhibitory effect
Description: as §2

[3] = system: MKN-45 (Gastric Adenocarcinoma); test: WST-1 cell viability, gastric cancer cell line MKN-45; type: cell-based; settings: Homo sapiens
Description: as §1, §2

TSGH = test: WST-1 cell viability, bladder cancer cell line TSGH; type: cell-based; settings: 72 h
Description: as §1, §2

normal cells = test: Toxicity to normal cells (cell viability); type: cell-based
Description: Subculture the different types of cancer cells. The cancer cells includes lung cancer, gastric cancer, hepatic cancer, colon cancer, skin cancer, cervical cancer, prostate cancer, bladder cancer, breast cancer, leukemia, pancreatic cancer, ovarian cancer, tongue cancer, osteosarcoma, and renal cancer. The normal cells used in the control group included kidney cells (HEK293), canine fibroblast cell line HFW, and human bronchial epithelial cell line BEAS-2B.
as §2

T24 = test: WST-1 cell viability, bladder cancer cell line T24; type: cell-based; settings: Homo sapiens
Description: as §1
as §2, with “Culture the 96-well plate at 37° C. for 30 to 90 minutes.” left out

[4] = system: Hep3B (hepatocellular carcinoma); test: WST-1 cell viability, hepatic cancer cell line Hep3B; type: cell-based; settings: Homo sapiens, 72 h
Description: as §1, §2

[5] = system: AGS (Gastric Adenocarcinoma); test: WST-1 cell viability, gastric cancer cell line AGS; type: cell-based; settings: 72 h
Description: as §1, §2

[6] = Animal model test of gastric cancer, body weight and survival of mice; type: in vivo; settings: for weight: mice A, B, C
Description: In this invention, the female mice were (BALB/cAnN.Cg-Foxn1^nu/CrlNarl) purchased from National Laboratory Animal Center (Taiwan). The weight of the mice were 21±1 g. These mice were subcutaneously injected with gastric cancer cells (AGS) and then put these mice into different cage sat random. The drug test experiment was divided into three groups, include “control group”, “low dose group (100 mg/kg/day)”, and “high dose group (200 mg/kg/day)”. These mice were then injected test drug intraperitoneally once daily until the tumor size reached 100 mm^3. The tumor sizes and body weight were measured twice a week. The tumor sizes were measured and calculated by formula: (L×W^2)/2. L represents the tumor longest length. W represents the tumor shortest diameter.

TOV-21G = test: WST-1 cell viability, ovarian cancer cell line TOV-21G; type: cell-based; settings: Homo sapiens, TOV21G, 72 h
Description: as §1, §2

[7] = system: BCC (basal cell carcinoma); test: WST-1 cell viability, skin cancer cell line BCC; type: cell-based; settings: 72 h
Description: as §1, §2

LNCap = test: WST-1 cell viability, prostate cancer cell line LNCap; type: cell-based; settings: Homo sapiens, 72 h
Description: as §1, §2

[8] = average of 4 tests, read-out: survival rate (inhibition effect), Average
[9] = run 0510-10 min, read-out: survival rate (inhibition effect)
[10] = run 0512-10 min, read-out: survival rate (inhibition effect)
[11] = run 0515-10 min, read-out: survival rate (inhibition effect)
[12] = run 0517-10 min, read-out: survival rate (inhibition effect)

Fc1ccc([C@@H]2CCNC[C@H]2COc2ccc3c(c2)OCO3)cc1 [Paroxetine]
viability at 10 µM ([1]; 786-0, 786-O, 72 h, run 0524-10 min, read-out: survival rate (inhibition effect)): 35.2% | viability at 10 µM ([1]; 786-0, 786-O, 72 h, run 0526-10 min, read-out: survival rate (inhibition effect)): 24% | viability at 10 µM ([1]; 786-0, 786-O, 72 h, run 0529-10 min, read-out: survival rate (inhibition effect)): 14.6% | viability at 10 µM ([1]; 786-0, 786-O, 72 h, run 0531-10 min, read-out: survival rate (inhibition effect)): 22.3% | viability at 10 µM ([1]; 786-0, 72 h, 786-O, average of 4 tests, read-out: survival rate (inhibition effect), Average): 24% | viability at 10 µM ([1]; 786-0, 72 h, summary, renal cancer, read-out: Inhibitory effect): 72.5% | viability at 10 µM ([2]; HepG2, 72 h, HepG2, average of 4 tests, read-out: survival rate (inhibition effect), Average): 54.1% | viability at 10 µM ([2]; HepG2, HepG2, 72 h, run 0524-20 min, read-out: survival rate (inhibition effect)): 66.4% | viability at 10 µM ([2]; HepG2, HepG2, 72 h, run 0526-20 min, read-out: survival rate (inhibition effect)): 58.3% | viability at 10 µM ([2]; HepG2, HepG2, 72 h, run 0529-20 min, read-out: survival rate (inhibition effect)): 50.1% | viability at 10 µM ([2]; HepG2, HepG2, 72 h, run 0531-20 min, read-out: survival rate (inhibition effect)): 41.7% | viability at 10 µM (ovarian cancer cells): 86.5% | viability at 10 µM ([3]; MKN-45, 72 h, MKN-45, average of 4 tests, read-out: survival rate (inhibition effect), Average): 40.5% | viability at 10 µM ([3]; MKN-45, MKN-45, 72 h, run 0510-10 min, read-out: survival rate (inhibition effect)): 36.2% | viability at 10 µM ([3]; MKN-45, MKN-45, 72 h, run 0512-10 min, read-out: survival rate (inhibition effect)): 52% | viability at 10 µM ([3]; MKN-45, MKN-45, 72 h, run 0515-10 min, read-out: survival rate (inhibition effect)): 37.8% | viability at 10 µM ([3]; MKN-45, MKN-45, 72 h, run 0517-10 min, read-out: survival rate (inhibition effect)): 36% | viability at 10 µM (TSGH; [8]): 38.4% | viability at 10 µM (TSGH; [9]): 37.1% | viability at 10 µM (TSGH; [10]): 37.4% | viability at 10 µM (TSGH; [11]): 36.8% | viability at 10 µM (TSGH; [12]): 42.2% | toxicity to normal cells (normal cells): no toxicity or had little toxicity | viability at 10 µM (T24; T-24, 72 h, T24, average of 4 tests, read-out: survival rate (inhibition effect), Average): 99.9% | viability at 10 µM (T24; T-24, T24, 72 h, run 1-30 min, read-out: survival rate (inhibition effect)): 112% | viability at 10 µM (T24; T-24, T24, 72 h, run 2-20 min, read-out: survival rate (inhibition effect)): 85.2% | viability at 10 µM (T24; T-24, T24, 72 h, run 3-20 min, read-out: survival rate (inhibition effect)): 102% | viability at 10 µM (T24; T-24, T24, 72 h, run 4-20 min, read-out: survival rate (inhibition effect)): 102% | viability at 10 µM [4, 8]: 66.1% | viability at 10 µM ([4]; run 0612-20 min, read-out: survival rate (inhibition effect)): 69.8% | viability at 10 µM ([4]; run 0614-20 min, read-out: survival rate (inhibition effect)): 67.4% | viability at 10 µM ([4]; run 0616-20 min, read-out: survival rate (inhibition effect)): 66.2% | viability at 10 µM ([4]; run 0619-20 min, read-out: survival rate (inhibition effect)): 60.9% | viability at 10 µM [5, 8]: 12.2% | viability at 10 µM [5, 9]: 12% | viability at 10 µM [5, 10]: 11.1% | viability at 10 µM [5, 11]: 12.7% | viability at 10 µM [5, 12]: 12.8% | weight ([6]; 100 mg/kg/day i.p., Fifth measurement): 22 g and 20 g | weight ([6]; 100 mg/kg/day i.p., First measurement): 19 g and 18 g | weight ([6]; 100 mg/kg/day i.p., Fourth measurement): 22 g and 20 g | weight ([6]; 100 mg/kg/day i.p., Second measurement): 19 g and 21 g and 20 g | weight ([6]; 100 mg/kg/day i.p., Third measurement): 20.5 g and 23.5 g and 19 g | weight ([6]; 200 mg/kg/day i.p., Fifth measurement): 21 g and 20 g | weight ([6]; 200 mg/kg/day i.p., First measurement): 19 g and 18.5 g and 20 g | weight ([6]; 200 mg/kg/day i.p., Fourth measurement): 20 g and 21 g | weight ([6]; 200 mg/kg/day i.p., Second measurement): 20 g and 23 g | weight ([6]; 200 mg/kg/day i.p., Third measurement): 19 g and 18.5 g | health status / death of tested mice during the treatment ([6]; both high and low doses): without death | weight of mice during the experiment ([6]; both low dose and high dose, FIG. 2): did not show a significant decrease | viability at 10 µM (TOV-21G; [8]): 87.1% | viability at 10 µM (TOV-21G; run 4-30 min, read-out: survival rate (inhibition effect)): 86.1% | viability at 10 µM (TOV-21G; run 7-3-30 min, read-out: survival rate (inhibition effect)): 93.5% | viability at 10 µM (TOV-21G; run 7-4-30 min, read-out: survival rate (inhibition effect)): 79.7% | viability at 10 µM (TOV-21G; run 7-7-30 min, read-out: survival rate (inhibition effect)): 89.2% | viability at 10 µM [7, 8]: 58.2% | viability at 10 µM ([7]; run 0602-30 min, read-out: survival rate (inhibition effect)): 42.1% | viability at 10 µM ([7]; run 0605-10 min, read-out: survival rate (inhibition effect)): 52.6% | viability at 10 µM ([7]; run 0607-10 min, read-out: survival rate (inhibition effect)): 41.1% | viability at 10 µM ([7]; run 0609-10 min, read-out: survival rate (inhibition effect)): 97% | viability at 10 µM (LNCap; [8]): 71.7% | viability at 10 µM (LNCap; run LNCap-1-10 min, read-out: survival rate (inhibition effect)): 65.9% | viability at 10 µM (LNCap; run LNCap-2-20 min, read-out: survival rate (inhibition effect)): 61.7% | viability at 10 µM (LNCap; run LNCap-3-20 min, read-out: survival rate (inhibition effect)): 80.9% | viability at 10 µM (LNCap; run LNCap-4-20 min, read-out: survival rate (inhibition effect)): 78.3%
